Broadly, the melting point is the temperature of the solid-liquid transition. Turning to `CC(C)CC(=O)O[C@H]1C[C@H](O)C=C2C=C[C@H](C)[C@H](CC[C@@H]3C[C@@H](O)CC(=O)O3)[C@H]21`, the melting point lay in the range of 153 to 155 °C. Compound `N#Cc1c(N)oc2ccc(Cl)cc2c1=O` yielded a melting point of 340 °C. Under `ClCc1coc(-c2sccc2Cl)n1` stands 84 to 85 °C; under `CC(=O)NC[C@H]1CN(c2ccc(N3CCC(n4nnc(N5CCOCC5)n4)CC3)c(F)c2)C(=O)O1`, 210 to 214 °C; under `CCCCCCCCCCCCCCCCSCC(CN)n1nnc(C)n1` (stereo not drawn), 82 to 83 °C. Under `CC(=O)N(C)c1cc(Br)cc(S(=O)(=O)c2ccccc2)c1` stands 147 to 148 °C; under `Cc1cn(C2CC(O)C(CO)(N=[N+]=[N-])O2)c(=O)[nH]c1=O` (stereo not drawn), 175 to 176 °C. As for `CC(C)n1c(/C=C/C=O)c(-c2ccc(F)cc2)c2ccccc2c1=O`, the melting point was in the range of 159 to 161 °C. With `NCCCCCCc1ccc(Cl)cc1` the figure was 71 °C; with `O=C(O)C(=O)CC(=O)c1cn(Cc2ccccc2)c2ccccc2c1=O`, 141 to 142 °C; with `CCOCc1nc2c(N)nc3cc(-c4cccnc4)cnc3c2n1CC(C)C`, 177 to 179 °C.

The compound `COc1ccc(COC(=O)C2N=CSCC2(C)O)cc1` (stereo not drawn) gave a melting point of 102 to 103 °C. On to `CC(=O)Nc1cccc(C=C2C(=O)c3ccccc3OC2c2ccccc2)c1` (stereo not drawn), for which the melting point fell in the range of 172 to 173 °C. With `COc1ccc2c(c1)CCC(C1CCC(O)C1(C)CC(C)(C)O)C2` (stereo not drawn) the figure was 123 to 125 °C; with `CCOC(=O)CNc1ccc(OCC(=O)OCC)c(NC(=O)c2ccc(OCCCCc3ccccc3)cc2)c1`, 61 to 63 °C; with `CCOCCOc1c(C)cc(-c2ccc3c(c2)C=C(C(=O)Nc2ccc(CN(C)C4CCOCC4)cc2)CCS3(=O)=O)cc1C`, 211 to 212 °C. Under `O=C(Nc1ccc2[nH]c(=O)sc2c1)C(=O)N1CCC(Cc2ccccc2)CC1` stands 201 to 203 °C. Under `CC(C)CNc1cccc(-c2ccnc3c(C(=O)c4cccs4)cnn23)c1` stands 186 to 188 °C. `CCOc1cc2c(Nc3cc(OC)c(Cl)cc3Cl)c(C#N)cnc2cc1OCCCN1CCN(CC)CC1` returned a melting point of 127 to 130 °C.

Regarding `CC(C)(C)CNc1nc(-c2[nH]c(C(C)(C)C)nc2-c2ccccc2)ccc1[N+](=O)[O-]`, the melting point fell in the range of 224 to 226 °C. Under `COc1ccc(/C=C/c2ncccc2C(=O)O)cc1` stands 230 to 233 °C. With `CC(=O)Oc1ccc2c(c1)Cc1cc(C(C)=O)ccc1-2` the figure was 126 to 128 °C. On to `CC(C)(C)c1ccc(Sc2ccc([N+](=O)[O-])cc2)cc1`, for which the melting point was in the range of 65 to 66 °C. With `COc1ccc(NN=C(Sc2ccc(Cl)c(Cl)c2)C(C)=O)cc1` the figure was 109 to 113 °C; with `O=C(O)CCCCc1cccc2cncn12`, 161 to 163 °C; with `Nc1nc(N)nc(C2CCN(Cc3ccccc3)CC2)n1`, > 260 °C. With `O=S(=O)(O)c1cccc(NCc2ccc(Cl)c(Cl)c2)c1` the figure was > 275 °C; with `CCOC(=O)c1nn(-c2ccc(OC)cc2)c2c1CCC2`, 108 to 109 °C; with `COc1ccc(Nc2cccc3c2C(=O)N(C2CCC(=O)NC2=O)C3=O)cc1` (stereo not drawn), 228 to 230 °C. Under `COc1ccc(Cc2cc(C(C)(C)C)cc(C(C)(C)C)c2O)cc1` stands 84 to 85 °C; under `COc1ccc(C(=O)N2C(=O)CCC2CCC(=O)OCc2ccccc2)cc1OCc1ccccc1` (stereo not drawn), 92 to 95 °C; under `N#CN1CCC(C2(O)c3ccccc3CCc3ccc(F)cc32)CC1` (stereo not drawn), 250 °C. With `CC(C)(C)c1cc(C(C)(CC(=O)O)c2ccc(O)c(C(C)(C)C)c2)ccc1O`, the melting point amounted to 156 °C. Under `CCOC(=O)[C@H]1O[C@@H]1C(=O)N[C@@H](COCC(C)C)CC(C)C` stands 60 to 63 °C; under `CCc1nc2cc(C(F)(F)F)c(Cl)cc2n1-c1ccc(C[C@H](C)NC(=O)NS(=O)(=O)c2ccc(C)cc2)cc1`, 138 to 141 °C.

With `CC(C)N1CC2CC(CN(C(=O)Cc3ccc([N+](=O)[O-])cc3)C2)C1`, the melting point lay within 93 to 94 °C. As for `COc1ccc2c(n1)NC(C)(C)C(=O)N2`, the melting point fell in the range of 194 to 195 °C. Under `CN1CCC(N(C)S(=O)(=O)c2ccc(Nc3nccc(Nc4ccc(F)cc4)n3)cc2)CC1` stands 205 to 210 °C; under `CN(Cc1ccccc1)c1cc(Cl)c(C=O)c(Cl)c1`, 66 to 70 °C. With `CCCCc1nc2ccc(C(C)=O)cc2c(=O)n1Cc1ccc(-c2ccccc2-c2nnnn2C(c2ccccc2)(c2ccccc2)c2ccccc2)cc1` the figure was 104 to 105 °C.

On to `CC(=O)C12CC(C(C)=O)(C1)C2`, for which the melting point was in the range of 67 to 69 °C.

Compound `CCCCCCCCCCCCCCC(O)(CCCCC(=O)O)CCCCC(=O)O` showed a melting point of 79 to 80 °C. With `NC(=O)C1=C(S(=O)Cc2ccccc2)CCC1` (stereo not drawn) the figure was 174 °C. Under `COc1ccc(C(CNc2ncnc3c2ncn3C2OC(CO)C(O)C2O)c2ccccc2)cc1` (stereo not drawn) stands 87 to 92 °C; under `COc1c(C)cc(NC(C)=O)c(Br)c1C`, 152 to 153 °C; under `COc1ccc2c(c1)c1c(n2Cc2ccccc2)CCCC1C(=O)N1CCN(c2ccccc2)CC1` (stereo not drawn), 142 to 143 °C. `O=C(O)Cc1cccc(OCCCCc2cc(-c3ccc(C(F)(F)F)cc3)no2)c1` showed a melting point of 134 to 135 °C. With `CCC[C@H]1C(=O)N(S(=O)(=O)c2cccc3ccccc23)[C@H]2CCN(S(C)(=O)=O)[C@H]12` (relative stereo) the figure was 185 to 187 °C; with `O=C(NC1N=C(c2ccc(F)cc2)c2ccccc2NC1=O)OCc1ccccc1` (stereo not drawn), > 260 °C. With `O=C(O)COc1cccc(CCc2nc(-c3ccccc3)c(-c3ccccc3)[nH]2)c1` the figure was 244 to 246 °C; with `Cc1cc(CO)n(CCCOc2cc3c(cc2C)OC2(CC(C)(C)c4cc(O)c(C)cc4O2)CC3(C)C)n1` (stereo not drawn), 208 to 210 °C; with `O=[N+]([O-])c1ccccc1NCc1cc(F)cc(F)c1`, 104 to 105 °C.

As for `Cc1ccc(C)n1-c1cc2c(cc1C(F)(F)F)[nH]c(=O)c(=O)n2CC(=O)NCc1ccccc1`, the melting point was > 250 °C. For the compound `O=C(COc1cccc(C(=O)O)c1)NCCNC(=O)COc1cccc(C(=O)O)c1`, the melting point is 282 °C. Regarding `O=[N+]([O-])c1ccc(SCl)c(C(Cl)(Cl)Cl)c1`, the melting point lay within 56 to 57 °C. Under `C[Si](C)(C)NC(=O)C(Cl)(Cl)Cl` stands 75 to 85 °C; under `CN(C)CCNC(=O)c1ccc(-c2ccccc2CSCCOc2ccccc2)cc1`, 93 to 96 °C.

`FC(F)(F)C1(c2cc(Cl)cc(Cl)c2)CC(c2ccc(-n3cncn3)cc2)=NO1` (stereo not drawn): the melting point was > 250 °C.

For `CCOc1cscc1C=O`, the melting point lay within 42 to 45 °C. Under `CC(C)Oc1ccc(Nc2nc(=O)n(C(C)C)c(=O)n2Cc2ccc(Cl)cc2)cc1Cl` stands 167 °C.

In the case of `O=C1CN(C(=O)c2ccccc2)c2ccccc2N1`, the melting point stood at 208 °C. `C=CCNc1nnc(-c2ccc(F)c(F)c2Nc2ccc(CC)cc2F)o1` registered a melting point of 120 to 123 °C. Regarding `CCOC(=O)Nc1cc(C(C)C(O)(Cn2cncn2)c2ccc(F)cc2F)ccn1` (stereo not drawn), the melting point fell in the range of 177 to 179 °C. As for `Cc1cc2[nH]c3c(c2cc1C)CC(N(C)C)CC3` (stereo not drawn), the melting point was in the range of 183 to 187 °C.

`CSCCC(C)NC(=O)c1c(I)cccc1C(=O)O` (stereo not drawn) registered a melting point of 148 to 150 °C.

In turn, `O=C1CCC(c2ccc(Cl)c([N+](=O)[O-])c2)=NN1` had a melting point of 190 to 193 °C. The compound `Cc1cc2c(c(S(N)(=O)=O)n1)C(=O)OC2` gave a melting point of 211 to 213 °C. With `ClCc1cnc2ccc(Cl)cc2c1Cl` the figure was 102 to 105 °C; with `COc1ccc(COC(=O)n2c(SCc3ccc(C)cn3)nc3cscc32)cc1`, 120 to 121 °C. `N#Cc1nn(-c2c(Cl)cc(C(F)(F)F)cc2Cl)c(Cl)c1C1CC1(Br)Br` (stereo not drawn) returned a melting point of 104 °C. With `c1ccc(OCc2ccsc2)cc1` the figure was 49 to 50 °C; with `O=C(CC1CCCCCC1=O)c1ccc(Br)cc1` (stereo not drawn), 124 to 127 °C. `O=C1NC(=O)C(CC#Cc2ccc(Cl)cc2)(Sc2ccc(Cl)cc2)S1` (stereo not drawn): the melting point is 144 to 146 °C. Turning to `O=C1C(=Cc2ccc(-c3cccs3)s2)CCc2cc(OCCn3ccnc3)ccc21`, the melting point is 180 to 181 °C.

The compound `O=C1c2ccccc2C(=O)N1OCc1cc(=O)c(OCc2ccccc2)co1` had a melting point of 172 °C. Consider `OCc1conc1-c1ccc(F)c(Cl)c1`, for which the melting point lay within 87 to 88 °C. `O=c1c(Br)cn(-c2cccc(C(F)(F)F)c2)nc1-c1ccnn1-c1ccccc1` yielded a melting point of 145 to 146 °C. `CC(C)=C(C(=O)OCc1ccccc1)N1C(=O)C(Br)(Br)C1Br` (stereo not drawn) gave a melting point of 68 to 70 °C.

In turn, `O=C(O)Cc1cccc(CNC(=O)C2Cc3ccccc3N2S(=O)(=O)c2ccc(-c3cccc(C(F)(F)F)c3)cc2)c1` (stereo not drawn) gave a melting point of 80 °C.

Turning to `CC(C)(C)OC(=O)N1CCC[C@H]1CNc1ccc2nccn2n1`, the melting point was 161 to 162 °C. `O=C(O)c1ccc(-c2c3ccccc3nn2Cc2ccc(F)cc2)cc1` showed a melting point of 237 to 239 °C. Under `COC(=O)C(N)=Cc1ccc(OCC(O)CNC(C)C)c(Cl)c1` (stereo not drawn) stands 122 to 123 °C; under `OP(O)C(NC(c1ccccc1)c1ccccc1)C1CCCCC1` (stereo not drawn), 199 °C. With `O=C(NCCCl)NOCc1ccccc1` the figure was 67 to 68 °C; with `O=S(=O)(c1cccc2ccccc12)c1n[nH]c2ccc(OCC3CCCNC3)cc12` (stereo not drawn), 168 to 170 °C; with `CCCCN1CCC(n2c(=O)[nH]c3ccccc32)CC1`, 207 to 209 °C. Under `COC(=O)C(=O)Nc1cc(OCCCOc2ccc(C(C)=O)c(O)c2CCC(F)(F)F)c(Br)cc1C` stands 139 to 140 °C; under `CC(C)(C)OC(=O)N1CCC[C@H]1C(=O)OCCCNc1cccc2c1C(=O)c1ccccc1C2=O`, 121 °C.

The values are drawn from a melting point compilation (Tetko et al.; mined from patent text by program, amines drawn as free bases though some values may be those of a salt).
